Consider 23 molecules from US8629158B2, “Azabicycloalkane-indole and azabicycloalkane-pyrrolo-pyridine MCH-1 antagonists, methods of making, and use thereof” (Albany Molecular Research, Inc., priority 2009, dated 2014).

pKi: −log10 of the molar value. Where a name gives a salt, the structure may show the parent alone. Read-outs that look alike come from different tables or passages of the source.

The target of data set [1] is human MCH-1 receptor (Homo sapiens (Human), UniProt Q99705). The experiment in a line: Binding Assay for Human Melanin-Concentrating Hormone (MCH-1) Receptor (radioligand displacement, CHO-K1 membranes). The note with it: membranes from CHO-K1 cells expressing human MCH1 receptor, [3H]-labeled radioligand, Ki from IC50 by Cheng Prusoff; for Ki: MCH-1 Ki (nM); for pKi: read-out: MCH-1 Ki. As to the method:
Evaluation of the affinity of compounds for the human MCH-1 receptor was accomplished using 4-(3,4,5-tritritiumbenzyloxy)-1-(1-(2-(pyrrolidin-1-yl)ethyl)-1H-indazol-5-yl)pyridin-2(1H)-one and membranes prepared from stable CHO-K1 cells expressing the human MCH1 receptor obtained from Euroscreen (Batch 1138). Cell membrane homogenates (8.92 μg protein) were incubated for 60 min at 25° C. with […] of the [^3H]-labeled compound in the absence or presence of the test compound in 50 mM Tris-HCl buffer, pH 7.4. Nonspecific binding was determined in the presence of 50 μM 1-(5-(4-cyanophenyl)bicyclo[3.1.0]hexan-2-yl)-3-(4-fluoro-3-(trifluoromethyl)phenyl)-1-(3-(4-methylpiperazin-1-yl)propyl)urea. Following incubation, the samples were filtered rapidly under vacuum through Skatron 11731 filters, pre-soaked in 0.5% polyethylenimine, and washed with ice-cold 50 mM Tris-HCl buffer, pH 7.4, (wash setting 9,9,0) using a Skatron cell harvester. The filters were counted for radioactivity in a liquid scintillation counter (Tri-Carb 2100TR, Packard) using a scintillation cocktail (Ultima Gold MV, Perkin Elmer).
The results are expressed as a percent inhibition of the control radioligand specific binding. The IC50 value (concentration causing a half-maximal inhibition of control specific binding) and Hill coefficient (nH) were determined by non-linear regression analysis of the competition curve using Hill equation curve fitting. The inhibition constant (Ki) was calculated from the Cheng Prusoff equation: (Ki=IC50/(1+(L/KD)), where L=concentration of radioligand in the assay, and KD=affinity of the radioligand for the receptor.
(Loss of bound radioactivity is the signal in a displacement assay; it reports binding, not function.)

Sequence of human MCH-1 receptor (Q99705 whole entry): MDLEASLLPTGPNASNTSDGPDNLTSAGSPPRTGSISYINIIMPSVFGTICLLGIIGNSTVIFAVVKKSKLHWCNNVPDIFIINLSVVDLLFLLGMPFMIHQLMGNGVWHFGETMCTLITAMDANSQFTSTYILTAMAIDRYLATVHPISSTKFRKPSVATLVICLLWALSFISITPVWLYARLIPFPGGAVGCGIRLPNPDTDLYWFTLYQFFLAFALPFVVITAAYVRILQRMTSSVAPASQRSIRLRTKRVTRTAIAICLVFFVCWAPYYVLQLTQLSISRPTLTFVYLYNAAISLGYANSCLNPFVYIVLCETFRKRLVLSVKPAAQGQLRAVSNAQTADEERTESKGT

What is called melting point is the temperature of the solid-liquid transition. In turn, `Cn1c2c(c3ccc(-n4ccc(-c5ccc(C(F)(F)F)nc5)cc4=O)cc31)C1CCC(C2)N1` (centres unmarked) (as salt: hydrochloride) [Example 5, 1-(5-Methyl-5,6,7,8,9,10-hexahydro-7,10-iminocyclohept[b]indol-3-yl)-4-(6-(trifluoromethyl)pyridin-3-yl)pyridin-2(1H)-one dihydrochloride] yielded a melting point of 228 to 233 °C.
On the same count and under the same terms, to `Cn1c2c(c3ccc(-n4ccc(OCc5ccc(F)cn5)cc4=O)cc31)C1CCC(C2)N1` (centres unmarked) (as salt: hydrochloride) [Example 6, 4-((5-Fluoropyridin-2-yl)methoxy)-1-(5-methyl-5,6,7,8,9,10-hexahydro-7,10-iminocyclohept[b]indol-3-yl)pyridin-2(1H)-one dihydrochloride] belongs 180 to 190 °C.
Still for that read-out and setting: next, `O=c1cc(OCc2ccc(F)cn2)ccn1-c1ccc2c3c([nH]c2c1)CC1CCC3N1` (centres unmarked) (as salt: hydrochloride) [Example 9, 4-((5-Fluoropyridin-2-yl)methoxy)-1-(5,6,7,8,9,10-hexahydro-7,10-iminocyclohept[b]indol-3-yl)pyridin-2(1H)-one dihydrochloride]: 205 to 211 °C (dec.).
The same measure, in the same setting: next, `CC(=O)N1C2CCC1c1c([nH]c3cc(-n4ccc(OCc5ccccc5)cc4=O)ccc13)C2` (single isomer, unassigned; enantiomer a) (as salt: hydrochloride) [Example 30, 1-(11-Acetyl-5,6,7,8,9,10-hexahydro-7,10-iminocyclohept[b]indol-3-yl)-4-(benzyloxy)pyridin-2(1H)-one hydrochloride (Enantiomer A)]: 140 to 170 °C.
The term Ki denotes the dissociation constant of the complex between target and ligand, obtained from inhibition or displacement. A low value points to higher affinity. `Cl.O=c1cc(OCc2ccccc2)ccn1-c1ccc2c3c([nH]c2c1)CC1CCC3N1` (single isomer, unassigned; enantiomer a) [Example 21, (+)-4-(Benzyloxy)-1-(5,6,7,8,9,10-hexahydro-7,10-iminocyclohept[b]indol-3-yl)pyridin-2(1H)-one hydrochloride (Enantiomer A)] registered a melting point of 211 to 212 °C. This molecule also showed an inhibition constant (Ki) in data set [1] of 39 nM.
On the same counts, the results for `Cl.O=c1cc(OCc2ccccc2)ccn1-c1ccc2c3c([nH]c2c1)CC1CCC3N1` (single isomer, unassigned; enantiomer b) [Example 20, (−)-4-(Benzyloxy)-1-(5,6,7,8,9,10-hexahydro-7,10-iminocyclohept[b]indol-3-yl)pyridin-2(1H)-one hydrochloride (Enantiomer B)] are 211 to 217 °C and 9.3 nM.
The term pKi denotes the Ki on a negative log10 scale, so that one unit is a factor of ten. Take `Cl.Cn1c2c(c3ccc(-n4ccc(-c5ccc(C(F)(F)F)nn5)cc4=O)cc31)C1CCC(C2)N1` (centres unmarked) [Example 3, 1-(5-Methyl-5,6,7,8,9,10-hexahydro-7,10-iminocyclohept[b]indol-3-yl)-4-(6-(trifluoromethyl)pyridazin-3-yl)pyridin-2(1H)-one hydrochloride]: the melting point lay in the range of 235 to 245 °C. Moreover, in data set [1], the pKi is 7.61.
On the same counts, the results for `Cl.O=c1cc(OCc2ccccc2)ccn1-c1ccc2c3c([nH]c2c1)CC1CCC3N1` (centres unmarked) [Example 8, 4-(Benzyloxy)-1-(5,6,7,8,9,10-hexahydro-7,10-iminocyclohept[b]indol-3-yl)pyridin-2(1H)-one hydrochloride] are 209 to 214 °C and 8.01.
On the same counts, the results for `Cl.O=c1cc(-c2ccc(C(F)(F)F)nc2)ccn1-c1ccc2c3c([nH]c2c1)CC1CCC3N1` (centres unmarked) [Example 10, 1-(5,6,7,8,9,10-Hexahydro-7,10-iminocyclohept[b]indol-3-yl)-4-(6-(trifluoromethyl)pyridin-3-yl)pyridin-2(1H)-one hydrochloride] are 215 to 235 °C (dec.) and 7.64.
On the same counts, the results for `Cl.Cn1c2c(c3ccc(-n4ccc(-c5ccc(C(F)(F)F)nc5)cc4=O)cc31)C1CCCC(C2)N1` (centres unmarked) [Example 13, 1-(5-Methyl-6,7,8,9,10,11-hexahydro-7,11-imino-5H-cyclooct[b]indol-3-yl)-4-(6-(trifluoromethyl)pyridin-3-yl)pyridin-2(1H)-one hydrochloride] are 265 to 274 °C (dec.) and 7.33.
Take `Cc1ccc(COc2cnn(-c3ccc4c5c(n(C)c4c3)CC3CCCC5N3)c(=O)c2)cn1.Cl` (centres unmarked) [Example 18, 2-(5-Methyl-6,7,8,9,10,11-hexahydro-7,11-imino-5H-cyclooct[b]indol-3-yl)-5-((6-methylpyridin-3-yl)methoxy)pyridazin-3(2H)-one hydrochloride]: the melting point was 190 to 200 °C. In data set [1], the pKi is 7.14.
On the same counts, the results for `Cl.Cn1c2c(c3ccc(-n4ccc(OCc5ccc(C(F)(F)F)nc5)cc4=O)cc31)C1CCCC(C2)N1` (centres unmarked) [Example 19, 1-(5-Methyl-6,7,8,9,10,11-hexahydro-7,11-imino-5H-cyclooct[b]indol-3-yl)-4-((6-(trifluoromethyl)pyridin-3-yl)methoxy)pyridin-2 (1H)-one hydrochloride] are 240 to 250 °C and 7.89.
The corresponding values for `Cl.O=c1cc(OCc2ccccn2)ccn1-c1ccc2c3c([nH]c2c1)CC1CCC3N1` (centres unmarked) [Example 22, 1-(5,6,7,8,9,10-Hexahydro-7,10-iminocyclohept[b]indol-3-yl)-4-((pyridin-2-yl)methoxy)pyridin-2(1H)-one hydrochloride] are 220 to 230 °C and 7.60.
In the case of `CCN1C2CCCC1c1c(n(C)c3cc(-n4ccc(OCc5ccccc5)cc4=O)ccc13)C2` (centres unmarked) [Example 32, 4-(Benzyloxy)-1-(12-ethyl-5-methyl-6,7,8,9,10,11-hexahydro-7,11-imino-5H-cyclooct[b]indol-3-yl)pyridin-2(1H)-one hydrochloride], the pKi in data set [1] is 7.82.
Same read-out and setting: to `Cn1c2c(c3ccc(-n4ccc(OCc5ccccc5)cc4=O)nc31)C1CCC(C2)N1` (centres unmarked) [Example 39, 4-(Benzyloxy)-1-(10-methyl-5,6,7,8,9,10-hexahydro-5,8-iminocyclohepta[4,5]pyrrolo[2,3-b]pyridin-2-yl)pyridin-2(1H)-one hydrochloride] belongs 7.68; to `CN1C2CCC1c1c(n(C)c3nc(-n4ccc(OCc5ccccc5)cc4=O)ccc13)C2` (centres unmarked) [Example 42, 4-(Benzyloxy)-1-(10,11-dimethyl-5,6,7,8,9,10-hexahydro-5,8-iminocyclohepta[4,5]pyrrolo[2,3-b]pyridin-2-yl)pyridin-2(1H)-one hydrochloride], 7.57.
In the case of `Cn1c2c(c3ccc(-n4ccc(OCc5ccc(F)cn5)cc4=O)nc31)C1CCC(C2)N1` (centres unmarked) [Example 43, 4-((5-Fluoropyridin-2-yl)methoxy)-1-(10-methyl-5,6,7,8,9,10-hexahydro-5,8-iminocyclohepta[4,5]pyrrolo[2,3-b]pyridin-2-yl)pyridin-2(1H)-one hydrochloride], the pKi in data set [1] was 7.42.
Same read-out and setting: to `Cn1c2c(c3ccc(-n4ccc(-c5ccc(C(F)(F)F)nc5)cc4=O)nc31)C1CCC(C2)N1` (centres unmarked) [Example 44, 1-(10-Methyl-5,6,7,8,9,10-hexahydro-5,8-iminocyclohepta[4,5]pyrrolo[2,3-b]pyridin-2-yl)-4-(6-(trifluoromethyl)pyridin-3-yl)pyridin-2(1H)-one hydrochloride] belongs 6.96; to `Cn1c2c(c3ccc(-n4ccc(OCc5ccc(F)cc5F)cc4=O)nc31)C1CCC(C2)N1` (centres unmarked) [Example 45, 4-(2,4-Difluorobenzyloxy)-1-(10-methyl-5,6,7,8,9,10-hexahydro-5,8-iminocyclohepta[4,5]pyrrolo[2,3-b]pyridin-2-yl)pyridin-2(1H)-one hydrochloride], 7.59.
On the same count and under the same terms, to `Cn1c2c(c3ccc(N4CCN(CCc5ccc(Cl)cc5)CC4=O)nc31)C1CCC(C2)N1` (centres unmarked) [Example 46, 4-(4-Chlorophenethyl)-1-(10-methyl-5,6,7,8,9,10-hexahydro-5,8-iminocyclohepta[4,5]pyrrolo[2,3-b]pyridin-2-yl)-piperazin-2-one dihydrochloride] belongs 7.00.
On the same count and under the same terms, to `Cn1c2c(c3ccc(-n4ccc(OCc5ccc(Cl)cc5F)cc4=O)nc31)C1CCC(C2)N1` (centres unmarked) [Example 47, 4-(4-Chloro-2-fluorobenzyloxy)-1-(10-methyl-5,6,7,8,9,10-hexahydro-5,8-iminocyclohepta[4,5]pyrrolo[2,3-b]pyridin-2-yl)pyridin-2(1H)-one hydrochloride] belongs 7.85.
For `Cn1c2c(c3ccc(-n4ccc(OCc5ccc(Cl)cc5Cl)cc4=O)nc31)C1CCC(C2)N1` (centres unmarked) [Example 48, 4-(2,4-Dichlorobenzyloxy)-1-(10-methyl-5,6,7,8,9,10-hexahydro-5,8-iminocyclohepta[4,5]pyrrolo[2,3-b]pyridin-2-yl)pyridin-2(1H)-one hydrochloride], the negative-log Ki (pKi) in data set [1] was 7.55.
The same measure, in the same setting: to `Cn1c2c(c3ccc(-n4ccc(-c5ccc(C(F)(F)F)cc5)cc4=O)nc31)C1CCC(C2)N1` (centres unmarked) [Example 50, 1-(10-Methyl-5,6,7,8,9,10-hexahydro-5,8-iminocyclohepta[4,5]pyrrolo[2,3-b]pyridin-2-yl)-4-(4-(trifluoromethyl)phenyl)pyridin-2(1H)-one hydrochloride] belongs 7.72.
